Experimental data published in PMC7822816, “Halo-fluorescein for photodynamic bacteria inactivation in extremely acidic conditions” (Nature Communications, 2021).

Legend:
E. coli = experiment: IC50 / growth inhibition of photodynamic inactivation, E. coli
Protocol: (§1) The bacteria were cultured overnight in a constant temperature oscillator (37 °C, 170 r/min, the specific culture conditions were listed in Supplementary Table 6). Suspensions of bacteria (100 μL, diluted 1000-folds, PBS) were added with different concentration PSs (final volume of 1 mL), and irradiated with LED (λ = 520 nm, 35 mW/cm^2) for 10 min. Then, the treated bacteria liquid (100 μL) were added into the culture medium and cultured in a 24-well plate. The OD600 of bacteria was measured to obtain the bacteria CFUs, and the survival rate were calculated as C/C0 × 100%, where C is the CFU of sample which treated with PSs and light, and C0 is the blank without any treatment. All photodynamic sterilizations were carried out in at least three replicates.
Growth inhibition of E. coli by different concentrations of TIF.
Irradiation: 520 nm green LED (6 mW/cm2), 10 min. Error bars = Standard Deviation (n=6).
Growth inhibition of Salmonella by different concentrations of
TIF. Irradiation: 520 nm green LED (6 mW/cm2), 10 min.

H. pylori = experiment: IC50 of photodynamic inactivation, H. pylori; conditions: Helicobacter pylori, 10 min, pH 2.5, read-out: IC50 (H. pylori)
Protocol: (§2) For quantitative comparison, the half-maximal inhibitory concentrations (IC50) of TIF for these bacterial were measured (Supplementary Table 6, and Supplementary Figs. 51–58).
Bacterial strains are listed in Supplementary Table 6. S. aureus and MRSA, and C. albicans were provided by West China Hospital of Stomatology, Sichuan University. A. acidoterrestris, S. enterica, H. pylori, L. plantarum, and E. coli were provided by College of Life Science, Sichuan University. The bacteria were cultured overnight in a constant temperature oscillator (37 °C, 170 r/min, the specific culture conditions were listed in Supplementary Table 6). Suspensions of bacteria (100 μL, diluted 1000-folds, PBS) were added with different concentration PSs (final volume of 1 mL), and irradiated with LED (λ = 520 nm, 35 mW/cm^2) for 10 min. Then, the treated bacteria liquid (100 μL) were added into the culture medium and cultured in a 24-well plate. The OD600 of bacteria was measured to obtain the bacteria CFUs, and the survival rate were calculated as C/C0 × 100%, where C is the CFU of sample which treated with PSs and light, and C0 is the blank without any treatment. All photodynamic sterilizations were carried out in at least three replicates.
Irradiation: 520 nm green LED (6 mW/cm2), 10 min. Error bars = Standard Deviation (n=3).
Irradiation: 520 nm green LED (6 mW/cm2), 10 min.

[1] = system: C. albicans infection of oral mucosa
Text: The extremely acidic environment was constructed through changing the pH of the mucosa and diluting PSs in pH 3.0 PBS buffer. […] During the investigations, the infected ICR mice were divided into six groups (six mice per group): blank, light, TIF, TIF + light, Ce 6 + light, and Zn-tpp + light. For comparison and better visualization of the infection, a normal group (no infection) was also included.
To construct the oral mucosal infection model, cotton balls immersed in solutions containing 10^8 CFU/mL of C. albicans were placed in the mouth of mice for 75 min. At day 1 and day 3, 50 μL pH 3.0 PBS and PSs (20 μM, diluted by pH 3.0 PBS) were added to oral mucosa, and treated with different lasers (510 nm for TIF, 660 nm for Ce 6 and Zn-tpp, 50 mW/cm^2) for 10 min.
To investigate the therapy effect, photographs, colonies, weights, and pathology index of mice were taken every other day. After day 3, one mouse in each group was sacrificed, and the tissues of oral mucosa were harvested for hematoxylin and eosin (H&E) staining. The pathology index was evaluated based on the standard given in Supplementary Table 10.

A. acidoterrestris = experiment: IC50 of photodynamic inactivation, A. acidoterrestris; format: cell-based; conditions: Alicyclobacillus acidoterrestris, 10 min; pH 2.5; LED 520 nm, 35 mW/cm^2, 10 min
[2] = system: broad band of aciduric bacteria; experiment: Photodynamic inactivation, summary over aciduric bacteria; conditions: read-out: IC50 (broad band of aciduric bacteria)
Protocol: as §2, §1

[3] = format: physicochemical; conditions: buffer, 5 min, pH 3
Protocol: Next, the influence of the added TIF to jucies after photodynamic sterilization was further investigated from the following two aspects. First, like many other dyes, TIF experienced photo-bleaching upon photo irradiation. As shown in Supplementary Fig. 69, in the presence of green LED irradiation (520 nm, 50 mW/cm^2), the absorbance of TIF decreased rapidly in 5 min (with ~22% remaining). In other words, most of the added TIF in juices is expected to lose the ability of ROS generation after the first photodynamic sterilization process. Second, the ingredients inside the juices before and after TIF-involved photodynamic sterilization were evaluated. Here, the investigations were concentrated on antioxidants due to the high activity of ROS[42]. Three representative antioxidants, namely, ascorbic acid (vitamin C), phenolic compounds, and flavonoid, were chosen. […] Besides, the color, flavor, and texture of the juices were roughly evaluated through visual observation and smelling (method supplied in the Chinese National Standard GB/T 31121-2014), no appreciable changes were observed before and after TIF-based photodynamic sterilization. […]
(1) The photo-bleaching of TIF. […] As can be seen from Figure R3 below, in the presence of green LED irradiation (520 nm, 50 mW/cm2), the absorbance of TIF decreased rapidly in 5 min (with ~22% remaining). […]

[4] = Photophysical characterization (absorption, fluorescence, phosphorescence, lifetime); format: physicochemical
Protocol: Section S6. Photophysical Characterizations
S6.1 Absorption, fluorescence, and phosphorescence spectra
Fluorescein and its derivatives were dissolved in DMSO to obtain 1 mM stock solutions.
The stock solutions were diluted with deionized water to 10 μM.
Supplementary Figure 20. The absorption (black), fluorescence (blue), and phosphorescence (red, slit 25 nm) spectra of FL.
Supplementary Figure 21. The absorption (black), fluorescence (blue), and phosphorescence (red, slit 25 nm) spectra of DCF.
S6.2 Fluorescence lifetime
Fluorescence decay samples was recorded with Fluorolog-3 (Horiba). The solution of samples were prepared to be 5 μM in 0.5% (v/v) DMSO, and diluted with 0.1M NaOH.
S6.5 Photophysical properties of the halogenated-fluorescein derivatives
Supplementary Table 4. Photophysical Properties of Halogenated-fluorescein derivatives. […]
a Measured in 2% DMSO; b Measured in 2% DMSO citric acid -disodium hydrogen phosphate buffer; c Measured in a mixed solvent of D 2O and CH3CN (VD2O:
VCH3CN = 1: 15); d The solution of samples were prepared to be 5 μM in 0.5% (v/v) DMSO, and diluted with 0.1 M NaOH.

L. plantarum = experiment: IC50 of photodynamic inactivation, L. plantarum; conditions: Lactiplantibacillus plantarum, 10 min, pH 2.5, read-out: IC50 (L. plantarum)
Protocol: as §2
S. aureus and MRSA, and C. albicans were provided by West China Hospital of Stomatology, Sichuan University. A. acidoterrestris, S. enterica, H. pylori, L. plantarum, and E. coli were provided by College of Life Science, Sichuan University. The bacteria were cultured overnight in a constant temperature oscillator (37 °C, 170 r/min, the specific culture conditions were listed in Supplementary Table 6). Suspensions of bacteria (100 μL, diluted 1000-folds, PBS) were added with different concentration PSs (final volume of 1 mL), and irradiated with LED (λ = 520 nm, 35 mW/cm^2) for 10 min. Then, the treated bacteria liquid (100 μL) were added into the culture medium and cultured in a 24-well plate. The OD600 of bacteria was measured to obtain the bacteria CFUs, and the survival rate were calculated as C/C0 × 100%, where C is the CFU of sample which treated with PSs and light, and C0 is the blank without any treatment. All photodynamic sterilizations were carried out in at least three replicates.

`O=C(O)c1ccccc1-c1c2cc(I)c(=O)c(I)c-2oc2c(I)c(O)c(I)cc12` [TIF, 2′,4′,5′,7′-tetraiodofluorescein] gave an Inhibition ratio (E. coli; E.coli, dose 0.5 μM, 3 V/3 W, 6 mW/cm2, 10 min) greater than 99.3%, an IC50 (E. coli; Escherichia coli, 10 min, pH 2.5, read-out: IC50 (E. coli)) of 210 nM and an IC50 (H. pylori) of 180 nM. The “pseudo membrane on tongue” value ([1]; TIF + light group) was “disappeared gradually”, the “body weight loss of infected mice” value ([1]; TIF + light group, within 7 days) was “least loss” and the pathology index ([1]; TIF + light group, 20 μM in pH 3.0 PBS, 510 nm 50 mW/cm^2 10 min, day 1 and day 3) was “remained almost unchanged”. The “H&E staining of tongue sections, without light” value ([1]; TIF group, no light) was “large amounts of inflammation infiltration”, the “H&E staining of tongue sections, with light” value ([1]; photosensitizer + light (510 nm TIF, 660 nm Ce 6 and Zn-tpp)) was “generally similar to that of the normal group” and the IC50 (A. acidoterrestris) was 580 nM. For the same compound, the IC50 [2] was less than 1100 nM, the “absorbance remaining after photo-bleaching” value [3] was ~ 22% and the kdec [4] was 1e+11 s⁻¹. The knr [4] was 9.97e+10 s⁻¹, the krad [4] was 3e+08 s⁻¹ and the maximum absorption [4] was 526 nm. The ΦFL ([4]; 5 μM in 0.5% (v/v) DMSO, diluted with 0.1 M NaOH) was 0.003, the λAbs ([4]; 2% DMSO) was 527 nm and the λPh ([4]; 2% DMSO) was 701 nm. It also gave a λem ([4]; 2% DMSO) of 551 nm, a τfl ([4]; fluorescence lifetime, 5 μM in 0.5% DMSO, 0.1 M NaOH) of 0.01 ns and an IC50 (L. plantarum) of 10 nM.
